# Test results taken from patent US20100144733A1, “Compounds, compositions and methods comprising heteroaromatic derivatives” (Institute for OneWorld Health, priority 2008, published 2010).
# Biological target: T1, CFTR (Homo sapiens, UniProt P13569)
# T1 construct: endogenous in cells; host or cells: T84 human colonic cells (ECACC)
# Assay: T84 assay (FLIPR membrane potential dye, forskolin/IBMX-stimulated CFTR channel activity)
# Type: cell-based
# Settings: imidazole and triazole-containing compounds (Tables 13, 14, 14′), read-out: IC50 (μM) (T84 assay)
# Summary of the method: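 Fluorescence from a membrane potential dye in T84 monolayers (HBSS with 10 mM Hepes) is followed each second for 150 s. Cells are exposed to test compound during the 45 min dye loading, then challenged with forskolin (10 μM) and IBMX (100 μM) to open CFTR. Inhibitors suppress the depolarization-driven fluorescence increase.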
# T1 sequence (P13569 whole entry): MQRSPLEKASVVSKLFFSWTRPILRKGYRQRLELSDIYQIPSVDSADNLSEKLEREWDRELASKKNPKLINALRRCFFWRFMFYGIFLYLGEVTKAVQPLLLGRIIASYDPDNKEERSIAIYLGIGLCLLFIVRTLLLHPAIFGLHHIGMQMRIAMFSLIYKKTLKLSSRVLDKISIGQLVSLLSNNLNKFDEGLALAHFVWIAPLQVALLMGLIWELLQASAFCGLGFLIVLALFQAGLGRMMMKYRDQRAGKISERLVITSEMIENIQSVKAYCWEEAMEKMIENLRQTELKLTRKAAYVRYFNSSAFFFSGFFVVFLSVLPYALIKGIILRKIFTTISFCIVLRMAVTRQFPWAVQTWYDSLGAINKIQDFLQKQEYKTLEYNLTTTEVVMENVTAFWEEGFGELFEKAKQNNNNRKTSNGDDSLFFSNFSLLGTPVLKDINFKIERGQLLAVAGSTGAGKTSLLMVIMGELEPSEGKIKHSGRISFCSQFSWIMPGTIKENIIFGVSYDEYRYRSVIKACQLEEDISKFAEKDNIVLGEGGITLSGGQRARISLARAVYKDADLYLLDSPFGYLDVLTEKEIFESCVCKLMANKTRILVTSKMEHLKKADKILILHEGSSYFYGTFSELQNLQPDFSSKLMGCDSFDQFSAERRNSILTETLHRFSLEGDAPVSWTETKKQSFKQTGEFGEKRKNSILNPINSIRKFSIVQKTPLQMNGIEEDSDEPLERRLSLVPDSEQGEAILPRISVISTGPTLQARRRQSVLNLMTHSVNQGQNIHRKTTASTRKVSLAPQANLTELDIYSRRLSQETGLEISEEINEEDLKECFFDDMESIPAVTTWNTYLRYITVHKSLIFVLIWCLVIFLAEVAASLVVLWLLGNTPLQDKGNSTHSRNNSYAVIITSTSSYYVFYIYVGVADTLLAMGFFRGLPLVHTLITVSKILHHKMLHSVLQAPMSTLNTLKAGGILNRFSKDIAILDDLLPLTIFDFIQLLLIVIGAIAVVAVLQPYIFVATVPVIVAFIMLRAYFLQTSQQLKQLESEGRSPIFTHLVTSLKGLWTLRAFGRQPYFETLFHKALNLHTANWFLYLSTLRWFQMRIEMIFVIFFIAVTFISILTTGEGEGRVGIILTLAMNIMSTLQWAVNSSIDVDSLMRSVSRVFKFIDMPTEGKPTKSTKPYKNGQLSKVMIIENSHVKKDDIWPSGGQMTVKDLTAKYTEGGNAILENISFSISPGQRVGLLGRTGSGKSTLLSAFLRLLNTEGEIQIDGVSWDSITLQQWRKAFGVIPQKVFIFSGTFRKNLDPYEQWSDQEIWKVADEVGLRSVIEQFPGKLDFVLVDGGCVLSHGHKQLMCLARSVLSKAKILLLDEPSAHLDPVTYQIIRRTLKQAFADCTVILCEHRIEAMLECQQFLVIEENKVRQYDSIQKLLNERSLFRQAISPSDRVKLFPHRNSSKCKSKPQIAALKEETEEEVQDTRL
row,SMILES,IC50
1,"O=C(c1ncn(-c2cc(Cl)c(O)c(Cl)c2)n1)N(Cc1ccccc1)Cc1cccc(OC(F)(F)F)c1 [84i, N-benzyl-1-(3,5-dichloro-4-hydroxyphenyl)-N-(3-(trifluoromethoxy)benzyl)-1H-1,2,4-triazole-3-carboxamide]",6.81 µM
2,"O=C(c1ncn(-c2cc(Cl)c(O)c(Cl)c2)n1)N(Cc1ccccc1)Cc1cccc(C(F)(F)F)c1 [85i, N-benzyl-1-(3,5-dichloro-4-hydroxyphenyl)-N-(3-(trifluoromethyl)benzyl)-1H-1,2,4-triazole-3-carboxamide]",3.16 µM

# Further lines, results first:
row,IC50,SMILES
1,0.76 µM,"C=CCN(Cc1ccc(C(C)C)cc1)C(=O)c1ncn(-c2cc(Cl)c(O)c(Cl)c2)n1 [101i, N-allyl-1-(3,5-dichloro-4-hydroxyphenyl)-N-(4-isopropylbenzyl)-1H-1,2,4-triazole-3-carboxamide]"
2,9.17 µM,"COCCOCCOCCOCCN(Cc1ccc(Cl)c(Cl)c1)C(=O)c1ncn(-c2cc(Cl)c(O)c(Cl)c2)n1 [111i, 1-(3,5-dichloro-4-hydroxyphenyl)-N-(3,4-dichlorobenzyl)-N-(2,5,8,11-tetraoxatridecan-13-yl)-1H-1,2,4-triazole-3-carboxamide]"
3,23.5 µM,"COCCOCCOCCN(Cc1cccc(OC(F)(F)F)c1)C(=O)c1ncn(-c2cc(Cl)c(O)c(Cl)c2)n1 [113i, 1-(3,5-dichloro-4-hydroxyphenyl)-N-(2-(2-(2-methoxyethoxy)ethoxy)ethyl)-N-(3-(trifluoromethoxy)benzyl)-1H-1,2,4-triazole-3-carboxamide]"
4,2.8 µM,"COCCOCCOCCOCCN(Cc1cccc(OC(F)(F)F)c1)C(=O)c1ncn(-c2cc(Cl)c(O)c(Cl)c2)n1 [115i, 1-(3,5-dichloro-4-hydroxyphenyl)-N-(2,5,8,11-tetraoxatridecan-13-yl)-N-(3-(trifluoromethoxy)benzyl)-1H-1,2,4-triazole-3-carboxamide]"

# Same assay, conditions: oxadiazole-containing compounds (a series), average of at least 2 runs unless annotated n = 1, read-out: IC50
row,SMILES,IC50
1,"O=C(NCc1ccc(F)c(F)c1)c1noc(-c2cc(Cl)c(O)c(Cl)c2)n1 [80a, 5-(3,5-dichloro-4-hydroxyphenyl)-N-(3,4-difluorobenzyl)-1,2,4-oxadiazole-3-carboxamide]",8.14 µM
2,"Cc1ccc(CNC(=O)c2noc(-c3cc(Cl)c(O)c(Cl)c3)n2)cc1 [81a, 5-(3,5-dichloro-4-hydroxyphenyl)-N-(4-methylbenzyl)-1,2,4-oxadiazole-3-carboxamide]",14.8 µM
3,"O=C(NCc1ccccc1Cl)c1noc(-c2cc(Cl)c(O)c(Cl)c2)n1 [83a, N-(2-chlorobenzyl)-5-(3,5-dichloro-4-hydroxyphenyl)-1,2,4-oxadiazole-3-carboxamide]",7.28 µM
4,"CN(Cc1ccc(Cl)cc1)C(=O)c1noc(-c2cc(Cl)c(O)c(Cl)c2)n1 [84a, N-(4-chlorobenzyl)-5-(3,5-dichloro-4-hydroxyphenyl)-N-methyl-1,2,4-oxadiazole-3-carboxamide]",4.03 µM
5,"O=C(NCc1cc(Cl)cc(Cl)c1)c1noc(-c2cc(Cl)c(O)c(Cl)c2)n1 [85a, 5-(3,5-dichloro-4-hydroxyphenyl)-N-(3,5-dichlorobenzyl)-1,2,4-oxadiazole-3-carboxamide]",2.33 µM
6,"O=C(NCc1cccc(Cl)c1)c1noc(-c2cc(Cl)c(O)c(Cl)c2)n1 [86a, N-(3-chlorobenzyl)-5-(3,5-dichloro-4-hydroxyphenyl)-1,2,4-oxadiazole-3-carboxamide]",2.12 µM
7,"CN(Cc1ccc(C(F)(F)F)cc1)C(=O)c1noc(-c2cc(Cl)c(O)c(Cl)c2)n1 [87a, 5-(3,5-dichloro-4-hydroxyphenyl)-N-methyl-N-(4-(trifluoromethyl)benzyl)-1,2,4-oxadiazole-3-carboxamide]",3.42 µM
8,"O=C(NCc1ccccc1C(F)(F)F)c1noc(-c2cc(Cl)c(O)c(Cl)c2)n1 [88a, 5-(3,5-dichloro-4-hydroxyphenyl)-N-(2-(trifluoromethyl)benzyl)-1,2,4-oxadiazole-3-carboxamide]",6.2 µM
9,"O=C(c1nc(-c2cc(Cl)c(O)c(Cl)c2)no1)N(Cc1cccnc1)Cc1cccc(C(F)(F)F)c1 [89a, 3-(3,5-dichloro-4-hydroxyphenyl)-N-(pyridin-3-ylmethyl)-N-(3-(trifluoromethyl)benzyl)-1,2,4-oxadiazole-5-carboxamide]",2.52 µM
10,"O=C(CN(Cc1cccc(C(F)(F)F)c1)C(=O)c1nc(-c2cc(Cl)c(O)c(Cl)c2)no1)c1ccccc1 [90a, 3-(3,5-dichloro-4-hydroxyphenyl)-N-(2-oxo-2-phenylethyl)-N-(3-(trifluoromethyl)benzyl)-1,2,4-oxadiazole-5-carboxamide]",8.38 µM
11,"CC(C)(C)C(=O)CN(Cc1cccc(C(F)(F)F)c1)C(=O)c1nc(-c2cc(Cl)c(O)c(Cl)c2)no1 [91a, 3-(3,5-dichloro-4-hydroxyphenyl)-N-(3,3-dimethyl-2-oxobutyl)-N-(3-(trifluoromethyl)benzyl)-1,2,4-oxadiazole-5-carboxamide]",2.15 µM
12,"CC(C)(C)C(=O)N1CCN(C(=O)c2nc(-c3cc(Br)c(O)c(Br)c3)no2)CC1 [93a, 1-(4-(3-(3,5-dibromo-4-hydroxyphenyl)-1,2,4-oxadiazole-5-carbonyl)piperazin-1-yl)-2,2-dimethylpropan-1-one]",5.8 µM
13,"CC#CCN(Cc1cccc(C(F)(F)F)c1)C(=O)c1nc(-c2cc(Cl)c(O)c(Cl)c2)no1 [98a, N-(but-2-ynyl)-3-(3,5-dichloro-4-hydroxyphenyl)-N-(3-(trifluoromethyl)benzyl)-1,2,4-oxadiazole-5-carboxamide]",2.86 µM

# Next, values leading:
row,IC50,SMILES
1,6.71 µM,"O=C(c1nc(-c2cc(Cl)c(O)c(Cl)c2)no1)N(Cc1cccc(C(F)(F)F)c1)Cc1cccc(C(F)(F)F)c1 [101a, 3-(3,5-dichloro-4-hydroxyphenyl)-N,N-bis(3-(trifluoromethyl)benzyl)-1,2,4-oxadiazole-5-carboxamide]"
2,10.1 µM,"O=C(NCc1cccc(F)c1F)c1noc(-c2cc(Cl)c(O)c(Cl)c2)n1 [102a, 5-(3,5-dichloro-4-hydroxyphenyl)-N-(2,3-difluorobenzyl)-1,2,4-oxadiazole-3-carboxamide]"
3,9.64 µM,"O=C(NCc1c(F)cccc1F)c1noc(-c2cc(Cl)c(O)c(Cl)c2)n1 [103a, 5-(3,5-dichloro-4-hydroxyphenyl)-N-(2,6-difluorobenzyl)-1,2,4-oxadiazole-3-carboxamide]"
4,23 µM,"O=C(Nc1ccc(Oc2ccccc2)cc1)c1nc(-c2cc(Br)c(O)c(Br)c2)no1 [104a, 3-(3,5-dibromo-4-hydroxyphenyl)-N-(4-phenoxyphenyl)-1,2,4-oxadiazole-5-carboxamide]"
5,23.1 µM,"CC(C)(C)CCNC(=O)c1nc(-c2cc(Br)c(O)c(Br)c2)no1 [105a, 3-(3,5-dibromo-4-hydroxyphenyl)-N-(3,3-dimethylbutyl)-1,2,4-oxadiazole-5-carboxamide]"
6,24.6 µM,"CN(Cc1cccc(C(F)(F)F)c1)C(=O)c1noc(-c2cc(Cl)c(OCC(=O)O)c(Cl)c2)n1 [106a, 2-(2,6-dichloro-4-(3-(methyl(3-(trifluoromethyl)benzyl)carbamoyl)-1,2,4-oxadiazol-5-yl)phenoxy)acetic acid]"
7,19.2 µM,"O=C(O)COc1c(Cl)cc(-c2nc(C(=O)NCc3ccc(Oc4ccccc4)cc3)no2)cc1Cl [107a, 2-(2,6-dichloro-4-(3-(4-phenoxybenzylcarbamoyl)-1,2,4-oxadiazol-5-yl)phenoxy)acetic acid]"
8,2.79 µM,"CCCN(Cc1cccc(C(F)(F)F)c1)C(=O)c1nc(-c2cc(Cl)c(O)c(Cl)c2)no1 [108a, 3-(3,5-dichloro-4-hydroxyphenyl)-N-propyl-N-(3-(trifluoromethyl)benzyl)-1,2,4-oxadiazole-5-carboxamide]"
9,5.31 µM,"C#CCN(Cc1cccc(C(F)(F)F)c1)C(=O)c1nc(-c2cc(Cl)c(O)c(Cl)c2)no1 [109a, 3-(3,5-dichloro-4-hydroxyphenyl)-N-(prop-2-ynyl)-N-(3-(trifluoromethyl)benzyl)-1,2,4-oxadiazole-5-carboxamide]"
10,3.76 µM,"CCOCCN(Cc1cccc(C(F)(F)F)c1)C(=O)c1nc(-c2cc(Cl)c(O)c(Cl)c2)no1 [110a, 3-(3,5-dichloro-4-hydroxyphenyl)-N-(2-ethoxyethyl)-N-(3-(trifluoromethyl)benzyl)-1,2,4-oxadiazole-5-carboxamide]"
11,6.14 µM,"COCCOCCN(Cc1cccc(C(F)(F)F)c1)C(=O)c1nc(-c2cc(Cl)c(O)c(Cl)c2)no1 [111a, 3-(3,5-dichloro-4-hydroxyphenyl)-N-(2-(2-methoxyethoxy)ethyl)-N-(3-(trifluoromethyl)benzyl)-1,2,4-oxadiazole-5-carboxamide]"
12,15.7 µM,"O=C(NCc1cc(F)ccc1F)c1noc(-c2cc(Cl)c(O)c(Cl)c2)n1 [113a, 5-(3,5-dichloro-4-hydroxyphenyl)-N-(2,5-difluorobenzyl)-1,2,4-oxadiazole-3-carboxamide]"
13,7.9 µM,"O=C(NCc1ccc(F)cc1F)c1noc(-c2cc(Cl)c(O)c(Cl)c2)n1 [114a, 5-(3,5-dichloro-4-hydroxyphenyl)-N-(2,4-difluorobenzyl)-1,2,4-oxadiazole-3-carboxamide]"
14,11.8 µM,"O=C(NCc1ccc(F)cc1)c1noc(-c2cc(Cl)c(O)c(Cl)c2)n1 [115a, 5-(3,5-dichloro-4-hydroxyphenyl)-N-(4-fluorobenzyl)-1,2,4-oxadiazole-3-carboxamide]"

# Same assay, conditions: triazine-containing compounds (Table 8 and 8′), read-out: IC50
row,IC50,SMILES
1,1.47 µM,"Oc1c(Br)cc(-c2cnc(OCc3cccc(OCc4ccccc4)c3)nn2)cc1Br [89e, 4-(3-(3-(benzyloxy)benzyloxy)-1,2,4-triazin-6-yl)-2,6-dibromophenol]"
2,3.49 µM,"N#Cc1ccc(COc2ncc(-c3cc(Br)c(O)c(Br)c3)nn2)cc1 [101e, 4-((6-(3,5-dibromo-4-hydroxyphenyl)-1,2,4-triazin-3-yloxy)methyl)benzonitrile]"

# Same assay, conditions: triazole-containing compounds (c series), average of at least 2 runs unless annotated n = 1, read-out: IC50
row,IC50,SMILES
1,24.1 µM,"CN(Cc1cccc(C(F)(F)F)c1)C(=O)c1n[nH]c(-c2cc(Cl)c(O)c(Cl)c2)n1 [90c, 5-(3,5-dichloro-4-hydroxyphenyl)-N-methyl-N-(3-(trifluoromethyl)benzyl)-1H-1,2,4-triazole-3-carboxamide]"
